# Laboratory results: patent publication US6472348B1, “Pyridone derivatives and herbicides” (Kumiai Chemical Industry Co., Ltd., priority 1996, dated 2002)
# Tested on: green foxtail (Se)
# Experiment: Test Example 7: crop plant selectivity by upland field soil treatment (corn), herbicidal effects
# Format: in vivo
# Parameters: scale not given here
# Details: dose 6.3 g ai/10a, 21st day after application
# Protocol: (§1) (Test on Crop Plant Selectivity by Upland Field Soil Treatment)
# (§2) In a plastic pot (surface area: 600 cm^2) filled with sand, corn (Ze), green foxtail (Se), pale smartweed (Po), slender amaranth (Am), common lambsquarters (Ch) and China jute (Ab) were sown and covered with soil. […] The plants were then cultured in a green house, and the evaluation of the herbicidal effects and phytotoxicity was conducted on the 21st day after the application in accordance with the standards as identified in Table 47.
row,SMILES,Herbicidal effects Se
1,Cn1c(C(F)(F)F)ccc(-c2cc(Br)c(Cl)cc2F)c1=O [1-138],5

# Tested on: China jute (Ab)
# Experiment: as above
# Format: in vivo
# Parameters: scale not given here
# Details: dose 6.3 g ai/10a, 21st day after application
# Protocol: as §1, §2
row,SMILES,Herbicidal effects Ab
1,Cn1c(C(F)(F)F)ccc(-c2cc(Br)c(Cl)cc2F)c1=O [1-138],4

# Tested on: pale smartweed (Po)
# Experiment: as above
# Format: in vivo
# Parameters: scale not given here
# Details: dose 6.3 g ai/10a, 21st day after application
# Protocol: as §1, §2
row,SMILES,Herbicidal effects Po
1,Cn1c(C(F)(F)F)ccc(-c2cc(Br)c(Cl)cc2F)c1=O [1-138],5

# Tested on: slender amaranth (Am)
# Experiment: Test Example 4: crop plant selectivity by upland field soil treatment (cotton), herbicidal effects
# Format: in vivo
# Parameters: scale not given here
# Details: dose 6.3 g ai/10 a, evaluated 21st day after application
# Method in brief: (§3)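 Cotton and weeds (incl. China jute, pale smartweed, slender amaranth) sown in sand-filled pots and covered with soil, then soil-treated. Grown in greenhouse; herbicidal effect and cotton phytotoxicity scored on day 21 after application against a rating standard.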
row,SMILES,Herbicidal effects Am
1,Cn1c(C(F)(F)F)ccc(-c2cc(Br)c(Cl)cc2F)c1=O [1-138],5

# Tested on: common lambsquarters (Ch)
# Experiment: as above
# Format: in vivo
# Parameters: scale not given here
# Details: dose 6.3 g ai/10 a, evaluated 21st day after application
# Method in brief: as §3
row,SMILES,Herbicidal effects Ch
1,Cn1c(C(F)(F)F)ccc(-c2cc(Br)c(Cl)cc2F)c1=O [1-138],5

# Tested on: green foxtail (Se)
# Experiment: as above
# Format: in vivo
# Parameters: scale not given here
# Details: dose 6.3 g ai/10 a, evaluated 21st day after application
# Method in brief: as §3
row,SMILES,Herbicidal effects Se
1,Cn1c(C(F)(F)F)ccc(-c2cc(Br)c(Cl)cc2F)c1=O [1-138],5

# Tested on: China jute (Ab)
# Experiment: as above
# Format: in vivo
# Parameters: scale not given here
# Details: dose 6.3 g ai/10 a, evaluated 21st day after application
# Method in brief: as §3
row,SMILES,Herbicidal effects Ab
1,Cn1c(C(F)(F)F)ccc(-c2cc(Br)c(Cl)cc2F)c1=O [1-138],4

# Tested on: pale smartweed (Po)
# Experiment: as above
# Format: in vivo
# Parameters: scale not given here
# Details: dose 6.3 g ai/10 a, evaluated 21st day after application
# Method in brief: as §3
row,SMILES,Herbicidal effects Po
1,Cn1c(C(F)(F)F)ccc(-c2cc(Br)c(Cl)cc2F)c1=O [1-138],5

# Tested on: barnyardgrass (Ec)
# Experiment: Test Example 1: herbicidal effects by paddy field soil treatment;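 further: grade of growth control; 5 = at least 90%; 4 = 70 to 90%; 3 = 50 to 70%; 2 = 30 to 50%; 1 = 10 to 30%; 0 = under 10%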
# Format: in vivo
# Details: 100 g of the active ingredient per 10 ares, 21st day after the application, index 0-5 of Table 47
# Method in brief: (§4)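 Flooded paddy-soil pots (3 cm water) sown after puddling/leveling; treatment 100 g a.i./10 ares; greenhouse culture; herbicidal effect rated visually on a scoring scale at 21 d post-application.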
row,SMILES,Herbicidal effects Ec
1,Cn1c(C(F)(F)F)ccc(-c2cc(Br)c(Cl)cc2F)c1=O [1-138],5

# Tested on: bulrush (Sc)
# Experiment: as above
# Format: in vivo
# Details: 100 g of the active ingredient per 10 ares, 21st day after the application, index 0-5 of Table 47
# Method in brief: as §4
row,SMILES,Herbicidal effects Sc
1,Cn1c(C(F)(F)F)ccc(-c2cc(Br)c(Cl)cc2F)c1=O [1-138],5

# Tested on: monochoria (Mo)
# Experiment: as above
# Format: in vivo
# Details: 100 g of the active ingredient per 10 ares, 21st day after the application, index 0-5 of Table 47
# Method in brief: as §4
row,SMILES,Herbicidal effects Mo
1,Cn1c(C(F)(F)F)ccc(-c2cc(Br)c(Cl)cc2F)c1=O [1-138],5

# Tested on: cotton (Go)
# Experiment: Test Example 4: crop plant selectivity by upland field soil treatment (cotton), phytotoxicity
# Format: in vivo
# Parameters: scale not given here
# Details: dose 6.3 g ai/10 a, evaluated 21st day after application
# Method in brief: as §3
row,SMILES,Phytotoxicity Go
1,Cn1c(C(F)(F)F)ccc(-c2cc(Br)c(Cl)cc2F)c1=O [1-138],1

# Tested on: barnyardgrass (Ec)
# Experiment: Test Example 2: herbicidal effects by upland field soil treatment;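 further: grade of growth control; 5 = at least 90%; 4 = 70 to 90%; 3 = 50 to 70%; 2 = 30 to 50%; 1 = 10 to 30%; 0 = under 10%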
# Format: in vivo
# Details: 100 g of the active ingredient per 10 ares, 21st day after the application, index 0-5 of Table 47
# Description: (§5) (Test on Herbicidal Effects by Upland Field Soil Treatment)
row,SMILES,Herbicidal effects Ec
1,Cn1c(C(F)(F)F)ccc(-c2cc(Br)c(Cl)cc2F)c1=O [1-138],5

# Tested on: Digitaria ciliaris (Di)
# Experiment: as above
# Format: in vivo
# Details: 100 g of the active ingredient per 10 ares, 21st day after the application, index 0-5 of Table 47
# Description: as §5
row,SMILES,Herbicidal effects Di
1,Cn1c(C(F)(F)F)ccc(-c2cc(Br)c(Cl)cc2F)c1=O [1-138],5

# Tested on: slender amaranth (Am)
# Experiment: as above
# Format: in vivo
# Details: 100 g of the active ingredient per 10 ares, 21st day after the application, index 0-5 of Table 47
# Description: as §5
row,SMILES,Herbicidal effects Am
1,Cn1c(C(F)(F)F)ccc(-c2cc(Br)c(Cl)cc2F)c1=O [1-138],5

# Tested on: common lambsquarters (Ch)
# Experiment: as above
# Format: in vivo
# Details: 100 g of the active ingredient per 10 ares, 21st day after the application, index 0-5 of Table 47
# Description: as §5
row,SMILES,Herbicidal effects Ch
1,Cn1c(C(F)(F)F)ccc(-c2cc(Br)c(Cl)cc2F)c1=O [1-138],5

# Tested on: rice flatsedge (Ci)
# Experiment: as above
# Format: in vivo
# Details: 100 g of the active ingredient per 10 ares, 21st day after the application, index 0-5 of Table 47
# Description: as §5
row,SMILES,Herbicidal effects Ci
1,Cn1c(C(F)(F)F)ccc(-c2cc(Br)c(Cl)cc2F)c1=O [1-138],5

# Tested on: pale smartweed (Po)
# Experiment: as above
# Format: in vivo
# Details: 100 g of the active ingredient per 10 ares, 21st day after the application, index 0-5 of Table 47
# Description: as §5
row,SMILES,Herbicidal effects Po
1,Cn1c(C(F)(F)F)ccc(-c2cc(Br)c(Cl)cc2F)c1=O [1-138],5

# Tested on: corn (Ze)
# Experiment: Test Example 7: crop plant selectivity by upland field soil treatment (corn), phytotoxicity
# Format: in vivo
# Parameters: scale not given here
# Details: dose 6.3 g ai/10a, 21st day after application
# Protocol: as §1, §2
row,SMILES,Phytotoxicity Ze
1,Cn1c(C(F)(F)F)ccc(-c2cc(Br)c(Cl)cc2F)c1=O [1-138],2

# Tested on: wheat (Tr)
# Experiment: Test Example 5: crop plant selectivity by upland field soil treatment (wheat), phytotoxicity
# Format: in vivo
# Parameters: scale not given here
# Details: dose 6.3 g ai/10a, 21st day after application
# Protocol: as §1
# In a plastic pot (surface area: 600 cm^2) filled with sand, wheat (Tr), Diaitaria ciliaris (Di), green foxtail (Se), pale smartweed (Po), slender amaranth (Am), common lambsquarters (Ch) and China jute (Ab) were sown and covered with soil. […] The plants were then cultured in a green house, and the evaluation of the herbicidal effects and phytotoxicity was conducted on the 21st day after the application in accordance with the standards as identified in Table 47. Symbol—represents “not tested”.
row,SMILES,Phytotoxicity Tr
1,Cn1c(C(F)(F)F)ccc(-c2cc(Br)c(Cl)cc2F)c1=O [1-138],1
